What was measured:
[1] = test system: standard industrial inoculum; experiment: Preservative efficacy (challenge) testing of latex binder samples, growth rating of streaked TSA plates; type: cell-based
Protocol: The samples prepared in accordance with Examples 1-4 and Comparative Example 1 were subjected to preservative efficacy testing in accordance with the following procedure:
A 1-g aliquot was removed from each sample and submitted for biocide analysis by a standard HPLC procedure to check the amount of isothiazolone microbicide dosed. The samples were then dosed with the standard industrial inoculum at a level of 0.1 mL/10 g.
All bacteria and yeast were stored at −70° C. to −80° C. in broth and glycerol (15%) prior to inoculum preparation. Molds were maintained on potato dextrose agar (PDA) plates at 2-5° C. The bacteria and yeast cultures were thawed and 0.1-mL aliquots of each were transferred into separate 10-mL aliquots of tryptic soy broth (TSB). These cultures were incubated at 30° C. for 18-24 h, with shaking at 150-200 rpm.
A volume of 10 mL of sterile phosphate buffer was measured out. The two mold strains were added by wetting sterile swabs in phosphate buffer, or water, and then rolling the swabs over the molds, covering an area of approximately 1 in^2 on each plate. The mold-covered swabs were then immersed in the 10 mL of phosphate buffer and agitated to suspend the spores. A volume of 0.1 mL of each bacterial culture, and a volume of 1 mL of each yeast culture, was then added to the mold mixture. The inoculum was blended by vortexing briefly. The organisms used in the inoculum and their corresponding American Type Culture Collection numbers (ATCC #) are shown in Table 1.
Samples were inverted several times to mix in the microorganisms. This inoculation challenged each test sample with 10^6-10^7 colony forming units/mL latex. Using a 10-μL sterile loop, latex samples were streaked onto tryptic soy agar (TSA) plates. This procedure was carried at t=0 and at several other time points during the first ˜5 h of the experiment to obtain speed-of-kill data. Additional time points were taken at t=1, 2 and 7 days. Between time points, all samples were stored at 30° C. In addition, all streaked TSA plates were incubated at 30° C. […]

[2] = Heat aging of amine/latex binder preparation at 50° C. for 14 days, concentration by GC; type: physicochemical; settings: latex binder
Protocol: A 20.0-g dispersion of N-chloro-2,4,4-trimethylpentan-2-amine, 18% sodium lauryl sulfate, and water (C1-TOA, 0.47 g; SLS, 1.29 g; H2O, 18.24.g) with a particle size in the range of 100 to 850 nm was added to a butyl acrylate/methyl methacrylate/methacrylic acid latex binder (180 g; 50/49/1 percentages by weight) stabilized by SLS (1 weight percent) and Disponil FES 32 emulsifier (1 weight percent). The Cl-TOA/binder preparation was heat aged at 50° C. for 14 days. The concentration of Cl-TOA prior to the heat aging step was 2350 ppm (14 mM). The concentration of Cl-TOA after the heat-aging step was measured by GC to be ˜160 ppm based on the volume of the binder.
The procedures were carried out substantially as described for Example 1 except that, after heat-aging, a diluted sample of KATHON™ LX Microbicide Concentrate (A Trademark of The Dow Chemical Company or Its Affiliates) was mixed in with the binder/Cl-TOA preparation by shaking the samples at 200 rpm for 20 min, giving a final dosage of ˜5 ppm active. The concentration of Cl-TOA after the heat-aging step was measured by GC to be ˜160 ppm based on the volume of the binder.
The procedure of Example 2 was repeated except that the constituents of the added dispersion were Cl-TOA (0.19 g), SLS (0.52 g), and water (19.29 g). The concentration of Cl-TOA after the heat-aging step was estimated to be ˜65 ppm based on the volume of the binder.
(TOA, 0.38 g; SLS, 1.06 g; H2O, 18.56 g) with a particle size in the range of 100 to 850 nm was added to a butyl acrylate/methyl methacrylate/methacrylic acid latex binder (180 g; 50/49/1 percentages by weight) stabilized by SLS (1 weight percent) and Disponil FES 32 emulsifier (1 weight percent). The TOA/binder preparation was heat aged at 50° C. for 14 days. The concentration of TOA before heat aging was 1900 ppm (14 mM), and GC measurements indicated no change in TOA concentration as a result of heat aging. […]

Row | SMILES | Efficacy as a quick-kill preservative ([1]; alone or in combination with the KATHON LX Microbicide, heat-aged latex binder) | Concentration of Cl-TOA after the heat-aging step (estimated) ([2]; 940 ppm (6 mM) before heat aging, estimated, based on the volume of the binder (Example 3)) | Concentration of Cl-TOA after the heat-aging step ([2]; 2350 ppm (14 mM) before heat aging, measured by GC, based on the volume of the binder (Examples 1 and 2)) | Biocidal activity ([1]; TOA itself) | Effect as an adjuvant for the biocide ([1]; with KATHON LX, compared to the microbiocide alone (Comp. Ex. 1)) | Change in TOA concentration as a result of heat aging ([2]; 1900 ppm (14 mM) before heat aging, GC (Example 4))
1 | CC(C)(C)CC(C)(C)NCl [Cl-TOA, N-chloro-2,4,4-trimethylpentan-2-amine] | effective | ~65 ppm | ~160 ppm |  |  | 
2 | CC(C)(C)CC(C)(C)N [TOA, 2,4,4-trimethylpentan-2-amine] |  |  |  | little or no biocidal activity | effective as an adjuvant | no change
